From US20260151384A1, “ISOQUINOLINE DERIVATIVES AS PROTEIN DEGRADERS, E7 DEGRADERS, ANTIVIRALS, TUMOR THERAPEUTICS AND IMMUNE SUPPRESSIVES” (priority 2022, published 2026)

Columns and labels:
SARS-CoV-2 [1] = experiment: microbe, parasite or virus in culture; type: cell-based; settings: 1.25 μM, n4
[2] = test system: p38, JNK1, ERK1/2, PKC, or Src-like kinases; settings: cited from earlier work
[3] = Pharmacokinetics of VSP034 and VSP035, oral liposomal formulation; type: in vivo, female Sprague-Dawley rats; settings: 100 mg/kg oral gavage; Student's t test, significant
Procedure: The pharmacokinetic parameters of VSP034 and VSP035 encapsulated as liposomal formulation were assessed after the administration of a single 100 mg/kg dose by oral gavage to 6 female Sprague-Dawley rats weighting 250 grams (±25g). The animals were randomized into two experimental groups (Groups 1 and 2), each composed of 3 rats. Rats belonging to group 1 were administered with VSP034 and rats belonging to group 2 were administered with VSP035. Blood was collected at baseline and 15 min, 30 min, 1, 2, 4, 6, 8, and 24 hours after the oral gavage. The rats were sacrificed 24 hours after the dosing. Blood was collected at each timepoint from the caudal vein, with the exception of the last collection (24 hours), which was performed by intracardiac puncture at the moment of sacrifice under isoflurane anesthesia. The animals were weighted immediately before the dosing to assess the proper dose and carefully monitored during the experiment. […] The main pharmacokinetic parameters (half-life, t1/2; time to maximum plasma concentration, Tmax; maximum plasma concentration, Cmax, AUC Extrapolated to Infinity, AUC0-inf; mean residence time, MRT; Apparent Volume of Distribution During Terminal Phase, VZ/F; and apparent oral clearance, CL/F) were calculated from the coefficients and exponents of the best-fits by using standard formulae.

SARS-CoV-2 [4] = type: cell-based
SARS-CoV-2 [5] = experiment: SARS-CoV-2 antiviral activity, mono treatment or combinations, Vero E6 cells (Test 18); type: cell-based; settings: 10, 5, 2.5, 1.25, 0.625 μM; FIG. 10
Source text: SARV-CoV-2 antiviral activity of VSP035 from mono treatment, or in combination with various pharmacological drug substances at various concentrations shown by the bars from left to the right. Y axis % Inhibition. Due to lethal concentrations for Vero E6 cells, dose dependency is visible at non-lethal doses only (median of multiple experiments n4 is shown); Concentrations (left to right) Compounds and respective assay concentrations in μM are, “constant” means same concentration for the series (X axis, numbers for series): (FIG. 10).

HPV16 E7 protein = HPV16 E7 protein (Human papillomavirus type 16, UniProt P03129); experiment: Western blot of E7 steady state level in CaSki cells; type: cell-based; settings: 10 μM, up to 24 hours
HPV16 E7 protein, sequence (P03129 whole entry): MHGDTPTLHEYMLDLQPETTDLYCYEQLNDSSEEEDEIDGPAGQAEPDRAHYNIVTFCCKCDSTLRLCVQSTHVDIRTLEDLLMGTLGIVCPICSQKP
Procedure: Reagents for Extract preparation and Western Blotting: Extraction Buffer: 2.5× (Tris 0.25M pH6.8, Glycerol 50%, SDS 10%), Gels: 4-12% gradient gels (Bolt® 4-12% Bis-Tris Plus Gel). MES Buffer: 50 mM MES, 50 mM Tris Base, 0.1% SDS, 1 mM EDTA, pH 7.3, Blotting membrane: Nitrocelulose 0.2 μm (Whatman Protran #10401394), 3MM filter paper (e.g. Whatman 3MM Chr, #3030917). Western Detection Reagents: WB Wash Buffer 1× (TBET): 20 mM Tris, 150 mM NaCl, 0.125% Tween20, pH 7.8; skim-milk powder (less than 0.15% fat content). Phosphate buffered saline (PBS) 1×: prepared as 1 L add 8 g sodium chloride (NaCl), 0.2 g potassium chloride (KCl), 1.44 g sodium phosphate, dibasic (Na2HPO4) and 0.24 g potassium phosphate, monobasic (KH2PO4) to 1 L dH2O, pH adjusted to 7.2.
B) For cells in cell culture the following procedure for the preparation of a total cell extract is used. Freshly seeded cells are grown for 24 hours to obtain 65-75% confluency (corresponds for CaSki cells to a plating of approx. 2×10^6 cells/10 cm Ø cell culture dish). Cell culture dishes with medium are out on ice for 5 minutes. […]
Dilute secondary anti-mouse HRP antibody in WB Blocking Buffer according to manufacturer instruction (e.g. CST Anti mouse IgG HRP-linked Ab, #7076, 1:3000). […] The membranes are developed using standard chemo luminescence (ECL) detection systems following imaging with Licor or Viber devices. […]

PDL-1 = experiment: Western blot of PDL-1 in CaSki cells; type: cell-based, human; settings: 4 and 8 hours, dose dependent
Procedure: 24 h after seeding, cells were treated with VSP035, cycloheximide (CHX) and/or MG132 protasome inhibitor as indicated. Cells were harvested for analysis for BY WB. […] In particular, faster migrating band abundancy was regulated by proteasome inhibitor MG132 and the protein was destabilized in the presence of CHX.

4E-BP1 = experiment: Western blot of 4E-BP1 phosphorylation in CaSki cells; type: cell-based, human; settings: 6 h, 10 μM & 5 μM
Source text: Thus, clearly distinguishing downstream-effects in comparison to a general TOR Kinase inhibition.

Compound: Nc1ncnc2n[nH]c(Nc3ccc(F)cc3)c12 [CGP57380]
- % Inhibition of SARV-CoV-2 virus activity (SARS-CoV-2 [1]): 17.71%
- inhibitory activity against p38, JNK1, ERK1/2, PKC, or Src-like kinases [2]: no inhibitory activity

Compound: CN1CCC(CN2C(=O)c3ccccc3[C@H](C(=O)Nc3cccc(N4CCN(C)CC4)c3)[C@H]2c2ccc(C(F)(F)F)cc2)CC1 [VSP035, (3S,4S)—N-[3-(4-methylpiperazin-1-yl)phenyl]-2-[(1-methylpiperidin-4-yl)methyl]-1-oxo-3-[4-(trifluoromethyl)phenyl]-1,2,3,4-tetrahydroisoquinoline-4-carboxamide]
- AUC higher than that of VSP034 [3]: 4 fold
- inhibition (SARS-CoV-2 [4]): 72±7.7%
- antiviral activity as single agent (SARS-CoV-2 [5]): Robust antiviral activities
- HPV 16 E7 protein degradation time course (western blot) (HPV16 E7 protein): stable e7 reduction
- regulation of PDL-1 (western blot) (PDL-1): valid pdl-1 destabilizer
- phosphorylation state of 4E-BP1 (4E-BP1): dose dependent hypophosphorylation
